Experimental data reported in the supplement of paper PMC10307832.

Compound: Cn1c(=O)n(-c2ccc(C(C)(C)C#N)cc2)c2c3cc(-c4cnc5ccccc5c4)ccc3ncc21 [Dactolisib] + NC(=O)Nc1cc(-c2cccc(F)c2)sc1C(=O)N[C@H]1CCCNC1 [AZD7762] (partner 0.2 µM)
Experiment: relative viability (nuclei count vs DMSO), 5 days (fraction); higher = more cells survive
Conditions: first compound 0.002 µM
Summary of the method: (§1)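 The day after seeding in 1536-well plates, lung cancer cell lines were treated by pin tool with a single drug, or with a fixed anchor-drug dose together with five library-drug doses (not always all listed) in √10 steps. After 5 days, a combined fix-and-stain solution (final 0.05% Triton X-100, 1% formaldehyde, 1 ug/ml Hoechst) was added. Nuclei counted on 4× images gave relative viability as treated counts over vehicle counts, reported as the median of duplicate plates.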

Cell Line	relative viability
NCI-H2342	0.511
NCI-H1993	0.735
NCI-H838	0.845
LCLC-103H	0.797
NCI-H2126	0.946
EMC-BAC-2	1.14
NCI-H2085	0.984
HCC-366	0.198
NCI-H1666	0.81
NCI-H596	1.21
LK-2	0.273
NCI-H2087	1.24
NCI-H1648	0.934
H3255	0.921
LOU-NH91	0.753
ChaGo-K-1	0.913
NCI-H2170	0.806
NCI-H522	0.83
SW 900	0.607
CAL-12T	0.573

Same assay, conditions: first compound 0.006325 µM

Cell Line	relative viability
NCI-H2342	0.49
NCI-H727	0.519
NCI-H1703	0.139
NCI-H1993	0.507
NCI-H838	0.908
LCLC-103H	0.781
NCI-H2126	0.925
EMC-BAC-2	0.955
NCI-H2085	0.9
HCC-366	0.27
NCI-H1666	0.98
NCI-H596	1.03
LK-2	0.447
NCI-H2087	1.35
NCI-H1648	0.762
H3255	0.963
LOU-NH91	0.734
ChaGo-K-1	0.845
NCI-H2170	0.88
NCI-H522	0.858
SW 900	0.526
CAL-12T	0.691

Same assay, conditions: first compound 0.02 µM

Cell Line	relative viability
NCI-H2342	0.444
NCI-H727	0.468
NCI-H1703	0.127
NCI-H1993	0.53
NCI-H838	0.843
LCLC-103H	0.703
NCI-H2126	0.949
EMC-BAC-2	0.984
NCI-H2085	0.877
HCC-366	0.238
NCI-H1666	0.807
NCI-H596	0.946
LK-2	0.305
NCI-H2087	1.67
NCI-H1648	0.629
H3255	0.803
LOU-NH91	0.69
ChaGo-K-1	0.811
NCI-H2170	0.753
NCI-H522	0.979
SW 900	0.596
CAL-12T	0.638

Same assay, conditions: first compound 0.06325 µM

Cell Line	relative viability
NCI-H2342	0.471
NCI-H727	0.47
NCI-H1703	0.124
NCI-H1993	0.335
NCI-H838	0.709
LCLC-103H	0.582
NCI-H2126	0.803
EMC-BAC-2	0.662
NCI-H2085	0.731
HCC-366	0.203
NCI-H1666	0.727
NCI-H596	0.774
LK-2	0.12
NCI-H2087	0.707
NCI-H1648	0.603
H3255	0.828
LOU-NH91	0.575
ChaGo-K-1	0.877
NCI-H2170	0.382
NCI-H522	0.695
SW 900	0.435
CAL-12T	0.424

Same assay, conditions: first compound 0.2 µM

Cell Line	relative viability
NCI-H2342	0.413
NCI-H727	0.45
NCI-H1703	0.115
NCI-H1993	0.387
NCI-H838	0.633
LCLC-103H	0.467
NCI-H2126	0.623
EMC-BAC-2	0.607
NCI-H2085	0.281
HCC-366	0.0362
NCI-H1666	0.656
NCI-H596	0.396
LK-2	0.0726
NCI-H2087	0.597
NCI-H1648	0.555
H3255	0.551
LOU-NH91	0.533
ChaGo-K-1	0.814
NCI-H2170	0.244
NCI-H522	0.626
SW 900	0.224
CAL-12T	0.357

Compound: Cn1c(=O)n(-c2ccc(C(C)(C)C#N)cc2)c2c3cc(-c4cnc5ccccc5c4)ccc3ncc21 [Dactolisib] + CS(=O)(=O)N1CCN(Cc2cc3nc(-c4cccc5[nH]ncc45)nc(N4CCOCC4)c3s2)CC1 [Pictilisib] (partner 1 µM)
Experiment: as above
Conditions: first compound 0.002 µM
Summary of the method: as §1

Cell Line	relative viability
NCI-H727	0.275
NCI-H1650	0.672
EBC-1	0.332
NCI-H1993	0.99
SK-LU-1	0.48
NCI-H838	0.351
LCLC-103H	0.611
NCI-H520	0.299
NCI-H2126	0.563
EMC-BAC-2	0.528
NCI-H2085	0.372
Calu-6	0.935
HCC-366	0.201
NCI-H1666	0.417
NCI-H596	0.373
LK-2	0.479
NCI-H2087	1.02

Cell Line	relative viability
SK-MES-1	0.391
H3255	0.513
COR-L23	0.925
COR-L 105	0.423
IA-LM	0.371
LOU-NH91	0.586
ChaGo-K-1	0.723
NCI-H2170	0.305
A549	0.544
NCI-H2009	0.961
NCI-H661	0.468
SW 1573	0.609
NCI-H1299	0.794
CAL-12T	0.407
NCI-H2228	0.355
NCI-H2023	0.205
NCI-H1563	0.682

Same assay, conditions: first compound 0.006325 µM

Cell Line	relative viability
NCI-H727	0.339
NCI-H1650	0.48
EBC-1	0.279
NCI-H1993	0.85
SK-LU-1	0.547
NCI-H838	0.302
LCLC-103H	0.583
NCI-H520	0.235
NCI-H2126	0.461
EMC-BAC-2	0.542
NCI-H2085	0.472
Calu-6	0.855
HCC-366	0.147
NCI-H1666	0.405
NCI-H596	0.348
LK-2	0.547
NCI-H2087	0.867

Cell Line	relative viability
SK-MES-1	0.356
H3255	0.44
COR-L23	0.656
COR-L 105	0.364
IA-LM	0.331
LOU-NH91	0.499
ChaGo-K-1	0.744
NCI-H2170	0.311
A549	0.356
NCI-H2009	0.853
NCI-H661	0.406
SW 1573	0.446
NCI-H1299	0.701
CAL-12T	0.408
NCI-H2228	0.291
NCI-H2023	0.212
NCI-H1563	0.624

Same assay, conditions: first compound 0.02 µM

Cell Line	relative viability
NCI-H727	0.396
NCI-H1650	0.524
EBC-1	0.279
NCI-H1703	0.257
NCI-H1993	0.804
SK-LU-1	0.484
NCI-H838	0.239
LCLC-103H	0.602
NCI-H520	0.234
NCI-H2126	0.434
EMC-BAC-2	0.512
NCI-H2085	0.352
Calu-6	0.729
HCC-366	0.124
NCI-H1666	0.438
NCI-H596	0.383
LK-2	0.499
NCI-H2087	0.714

Cell Line	relative viability
SK-MES-1	0.297
H3255	0.473
COR-L23	0.546
COR-L 105	0.377
IA-LM	0.219
LOU-NH91	0.525
ChaGo-K-1	0.491
NCI-H2170	0.289
A549	0.3
NCI-H2009	0.727
NCI-H661	0.389
SW 1573	0.405
NCI-H1299	0.659
CAL-12T	0.358
NCI-H2228	0.248
NCI-H2023	0.173
NCI-H1563	0.625

Same assay, conditions: first compound 0.06325 µM

Cell Line	relative viability
NCI-H727	0.212
NCI-H1650	0.321
EBC-1	0.204
NCI-H1703	0.228
NCI-H1993	0.705
SK-LU-1	0.432
NCI-H838	0.204
LCLC-103H	0.577
NCI-H520	0.195
NCI-H2126	0.425
EMC-BAC-2	0.379
NCI-H2085	0.332
Calu-6	0.414
HCC-366	0.0657
NCI-H1666	0.383
NCI-H596	0.352
LK-2	0.33
NCI-H2087	0.463

Cell Line	relative viability
SK-MES-1	0.337
H3255	0.35
COR-L23	0.177
COR-L 105	0.332
IA-LM	0.116
LOU-NH91	0.494
ChaGo-K-1	0.923
NCI-H2170	0.22
A549	0.145
NCI-H2009	0.498
NCI-H661	0.377
SW 1573	0.35
NCI-H1299	0.351
CAL-12T	0.251
NCI-H2228	0.173
NCI-H2023	0.121
NCI-H1563	0.651

Same assay, conditions: first compound 0.2 µM

Cell Line	relative viability
NCI-H727	0.227
NCI-H1650	0.323
EBC-1	0.171
NCI-H1703	0.192
NCI-H1993	0.834
SK-LU-1	0.211
NCI-H838	0.218
LCLC-103H	0.498
NCI-H520	0.184
NCI-H2126	0.368
EMC-BAC-2	0.341
NCI-H2085	0.396
Calu-6	0.352
HCC-366	0.102
NCI-H1666	0.366
NCI-H596	0.299
LK-2	0.251
NCI-H2087	0.336

Cell Line	relative viability
SK-MES-1	0.182
H3255	0.339
COR-L23	0.151
COR-L 105	0.305
IA-LM	0.0809
LOU-NH91	0.496
ChaGo-K-1	0.552
NCI-H2170	0.224
A549	0.112
NCI-H2009	0.322
NCI-H661	0.251
SW 1573	0.15
NCI-H1299	0.253
CAL-12T	0.254
NCI-H2228	0.222
NCI-H2023	0.108
NCI-H1563	0.573

Compound: Cn1c(=O)n(-c2ccc(C(C)(C)C#N)cc2)c2c3cc(-c4cnc5ccccc5c4)ccc3ncc21 [Dactolisib] + Nc1ncn([C@H]2C[C@H](O)[C@@H](CO)O2)c(=O)n1 [Decitabine] (partner 2 µM)
Experiment: as above
Conditions: first compound 0.002 µM
Summary of the method: as §1

Cell Line	relative viability
NCI-H2342	0.726
NCI-H1650	0.591
NCI-H1993	0.722
SK-LU-1	0.523
NCI-H838	0.603
LCLC-103H	0.678
NCI-H520	0.527
NCI-H2126	0.645
EMC-BAC-2	1.01
NCI-H2085	0.685
HCC-366	0.376
NCI-H1666	0.836
NCI-H596	1
LK-2	0.347
NCI-H2087	0.314
NCI-H1648	0.478
SK-MES-1	0.43
H3255	0.671
COR-L23	0.605
COR-L 105	0.578
LOU-NH91	0.772
ChaGo-K-1	0.558
NCI-H2170	0.489
A549	0.34
NCI-H522	0.797
SW 900	0.546
NCI-H2009	0.381
NCI-H661	0.574
SW 1573	0.556
NCI-H2023	0.224
